Assay results: patent US12391660B2, “Heteroaromatic acetamide derivative, and preparation and use thereof” (Hangzhou Westan Pharmaceutical Technology Co., Ltd, priority 2019, dated 2025)

How the values were obtained:
human TRPA1 = human TRPA1 (Homo sapiens (Human), UniProt O75762); test: FLIPR assay of inhibitory activity on human TRPA1 (calcium ion flux fluorescence); assay type: cell-based; conditions: HEK293 cells stably expressing human TRPA1
How it was run: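 Tetracycline-induced (0.1 μg/ml) HEK293 cells stably expressing human TRPA1, loaded with 5 μM Fluo-4 AM for 1 h at 37° C. Compounds added in 1:5 dilutions from 30 μM (9 points, duplicate), then 3 mM CaCl2 after 10 min; fluorescence peak at 538 nm gave IC50.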

asthmatic mice = test: Ovalbumin-induced asthma mouse model (BALF leukocyte counts, lung inflammation); assay type: in vivo, BABL/c mice; conditions: for percentage of eosinophils in BALF / percentage of macrophages in BALF / percentage of neutrophils in BALF / total number of leukocytes in BALF: intraperitoneal injection; for percentage of eosinophils in BALF / percentage of macrophages in BALF / percentage of neutrophils in BALF / total number of leukocytes in BALF / eosinophils in BALF: vs model control
Excerpt: 4. Effects of Compounds on Ovalbumin-Induced Asthma in Mouse and Rat Models
SPF-grade SD male rats (purchased from Zhejiang Academy of Medical Sciences, license number SCXK (Zhejiang) 2019-0002) with a body weight of 160-180 g; and SPF-grade female BABL/c mice (purchased from Zhejiang Weitong Lihua Experimental Animals Technology Co., Ltd., license number SCXK (Zhejiang) 2019-0001) with a body weight of 16-18 g were used. The above animals were raised by the Experimental Animal Center of Zhejiang Academy of Traditional Chinese Medicine.
Formulation of compound solution: compound was vortexed in a solvent system, dissolved by ultrasound, and prepared into a solution at a corresponding concentration, which was prepared just before use (the solvent system was composed of 5% Solutol HS 15, 5% DMSO and 90% physiological saline).
BABL/c mice or SD rats were randomly divided into: normal control group, model control group, dexamethasone group (0.72 mg/kg), and the respective test compound groups (one group for each dose), 10 mice in each group; 6 rats in each group.
Sensitization of mice: on the mornings of Day 0, Day 7, and Day 14, mice in the model control group and the respective drug administration groups were intraperitoneally injected with 0.2 ml of 10% OVA sensitizing solution (Yuanye Bio), and the normal control group was intraperitoneally injected with an equal volume of normal saline. In the afternoons of Day 7 and Day 14, mice in the model control group and the respective drug administration groups were intraperitoneally injected with 0.2 ml of 10% OVA (Sigma), and the normal control group was intraperitoneally injected with an equal volume of normal saline.
Mice: from Day 21, the normal control group and the model control group were not treated; the dexamethasone group and the respective test compound groups were intraperitoneally injected, 20 minutes before each challenge, with the corresponding drugs, injection volume: 0.1 ml/10 g, administered for 7 consecutive days; mice in the test compound-oral group were given the corresponding drugs by intragastric administration 30 minutes before the challenge; the test compound-atomization group or the dexamethasone-atomization group was given the corresponding drugs at different concentrations before challenge, 8 ml for each group, atomization for 30 minutes; the normal control group and the model control group were given no treatment. Administration was conducted for 7 consecutive days.
Mice: from Day 21, the mice in the model control group and the respective administration groups were placed in airtight containers in turn, and the challenging solution was atomized with an ultrasonic nebulizer (approximately 6-8 ml each time), twice a day, OVA challenging solution from Yuanye Shanghai was atomized in the morning, and OVA challenging solution from Sigma was atomized in the afternoon. Mice were challenged for 30 minutes per atomization, for 7 consecutive days. The normal control group was not treated. Mice in the model control group developing cyanosis of lips, accelerated breathing, unsteadiness during standing, nodding breathing, abdominal muscle cramps, etc. was deemed as a sign of success of the animal model.
24 hours after completion of the last challenge, the trachea of the mouse was exposed in front of the neck, a horizontal incision was made in the trachea with an ophthalmic scissor, and a 5 ml syringe-modified tracheal intubation needle was inserted, the left main bronchus was ligated, and the right main bronchus was intubated and tightened with surgical suture. Bronchoalveolar lavage was conducted 3 times with 0.3 ml normal saline, pumpback twice each time. The BALF was combined and collected in a 1.5 ml test tube, which was placed on ice or in a refrigerator at 4 degrees.
50 μl of the above BALF was taken, and 100 μl white blood cell counting diluent (2% iced acetic acid solution) was added thereto and mixed evenly therewith. […]

Chain of human TRPA1 (O75762 whole entry): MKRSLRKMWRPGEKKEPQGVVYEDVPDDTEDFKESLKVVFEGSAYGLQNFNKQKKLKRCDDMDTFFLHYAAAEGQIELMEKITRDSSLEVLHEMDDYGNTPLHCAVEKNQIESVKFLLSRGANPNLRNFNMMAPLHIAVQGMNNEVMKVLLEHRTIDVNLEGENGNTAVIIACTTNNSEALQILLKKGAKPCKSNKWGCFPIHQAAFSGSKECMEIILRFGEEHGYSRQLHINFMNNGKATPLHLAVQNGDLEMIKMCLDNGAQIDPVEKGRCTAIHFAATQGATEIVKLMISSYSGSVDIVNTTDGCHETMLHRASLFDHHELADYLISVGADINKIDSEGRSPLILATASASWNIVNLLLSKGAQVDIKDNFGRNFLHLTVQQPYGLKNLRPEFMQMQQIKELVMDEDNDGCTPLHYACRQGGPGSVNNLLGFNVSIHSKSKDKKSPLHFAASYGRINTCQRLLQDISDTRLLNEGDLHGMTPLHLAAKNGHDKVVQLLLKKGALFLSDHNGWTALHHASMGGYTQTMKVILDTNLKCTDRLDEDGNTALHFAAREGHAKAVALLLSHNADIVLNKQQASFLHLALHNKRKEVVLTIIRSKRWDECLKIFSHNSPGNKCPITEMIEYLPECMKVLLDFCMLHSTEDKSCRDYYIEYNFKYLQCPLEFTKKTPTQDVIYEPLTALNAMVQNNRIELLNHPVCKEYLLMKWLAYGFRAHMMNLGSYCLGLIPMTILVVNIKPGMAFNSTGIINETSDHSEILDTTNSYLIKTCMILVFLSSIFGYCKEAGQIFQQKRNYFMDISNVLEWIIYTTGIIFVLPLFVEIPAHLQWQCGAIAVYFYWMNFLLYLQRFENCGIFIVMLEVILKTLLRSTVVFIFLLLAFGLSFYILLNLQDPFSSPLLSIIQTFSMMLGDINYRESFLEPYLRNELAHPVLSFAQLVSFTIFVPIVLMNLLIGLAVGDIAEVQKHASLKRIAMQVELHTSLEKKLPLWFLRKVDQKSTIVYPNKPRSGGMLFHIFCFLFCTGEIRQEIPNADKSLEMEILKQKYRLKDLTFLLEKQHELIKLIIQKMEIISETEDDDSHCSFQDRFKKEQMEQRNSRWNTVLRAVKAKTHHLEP

SMILES	IC50 (human TRPA1) [nM]	percentage of eosinophils in BALF (asthmatic mice; P<0.01)	percentage of macrophages in BALF (asthmatic mice; P<0.01)	percentage of neutrophils in BALF (asthmatic mice; P<0.01)	total number of leukocytes in BALF (asthmatic mice; P<0.01)	lung tissue inflammation area (asthmatic mice; oral administration, P<0.05)	eosinophils in BALF (asthmatic mice; oral administration, P<0.01)	airway inflammation score (asthmatic mice; spray inhalation, P>0.05)	lung tissue inflammation area (asthmatic mice; spray inhalation, respective dose groups, P<0.01, 0.05)	eosinophils in BALF (asthmatic mice; spray inhalation, respective dose groups, P<0.05, 0.01)
N#Cc1ccc(NC2(C(=O)N3CCN(c4ccc(C(F)(F)F)cc4)CC3)CCCC2)cc1 [Compound 1, 4-((1-(4-(4-(trifluoromethyl)phenyl)piperazine-1-carbonyl)cyclopentyl)amino)benzonitrile]	40	decreased	increased	decreased	decreased	significantly reduced	significantly reduced	decreasing trend, but not reaching a statistical significance	reduce the lung tissue inflammation area of asthmatic mice in a dose-dependent manner	dose-dependent decrease
CC(C)(C)C1CCN(C(=O)C2(Nc3ccc(C#N)cc3)CCCC2)CC1 [Compound 31, 4-((1-(4-(tert-butyl)piperidine-1-carbonyl)cyclopentyl)amino)benzonitrile]	87	decreased	increased	decreased	decreased	–	–	–	–	–
